Measurements published in patent US9309250B2, “Substituted pyrrolo[2,3-b]pyrazines as ATR kinase inhibitors” (Vertex Pharmaceuticals Incorporated, priority 2011, dated 2016).

Target: T1, full-length ATR (Homo sapiens, UniProt Q13535)
T1 construct: Assays were carried out at 25° C. in the presence of 5 nM full-length ATR
Assay: ATR Inhibition Assay (radioactive-phosphate incorporation)
Assay type: biochemical
Conditions: Ki(app); 5 nM full-length ATR, 10 μM ATP, 800 μM target peptide, 25° C.
Method: Compounds were screened for their ability to inhibit ATR kinase using a radioactive-phosphate incorporation assay. Assays were carried out in a mixture of 50 mM Tris/HCl (pH 7.5), 10 mM MgCl2 and 1 mM DTT. Final substrate concentrations were 10 μM [γ-33P]ATP (3mCi 33P ATP/mmol ATP, Perkin Elmer) and 800 μM target peptide (ASELPASQPQPFSAKKK) (SEQ. ID. NO: 1).
Assays were carried out at 25° C. in the presence of 5 nM full-length ATR. An assay stock buffer solution was prepared containing all of the reagents listed above, with the exception of ATP and the test compound of interest. 13.5 μL of the stock solution was placed in a 96 well plate followed by addition of 2 μL of DMSO stock containing serial dilutions of the test compound (typically starting from a final concentration of 15 μM with 3-fold serial dilutions) in duplicate (final DMSO concentration 7%). The plate was pre-incubated for 10 minutes at 25° C. and the reaction initiated by addition of 15 μL [γ-33P]ATP (final concentration 10 μM).
The reaction was stopped after […] by the addition of 30 μL 0.1M phosphoric acid containing 2 mM ATP. A multiscreen phosphocellulose filter 96-well plate (Millipore, Cat no. MAPHN0B50) was pretreated with 100 μL 0.2M phosphoric acid prior to the addition of 45 μL of the stopped assay mixture. The plate was washed with 5×200 μL 0.2M phosphoric acid. After drying, 100 μL Optiphase ‘SuperMix’ liquid scintillation cocktail (Perkin Elmer) was added to the well prior to scintillation counting (1450 Microbeta Liquid Scintillation Counter, Wallac).
After removing mean background values for all of the data points, Ki(app) data were calculated from non-linear regression analysis of the initial rate data using the Prism software package (GraphPad Prism version 3.0cx for Macintosh, GraphPad Software, San Diego Calif., USA).
Below is a chart showing the ATR Inhibition Ki values of compounds of the disclosure.

T1 sequence (Q13535 whole entry): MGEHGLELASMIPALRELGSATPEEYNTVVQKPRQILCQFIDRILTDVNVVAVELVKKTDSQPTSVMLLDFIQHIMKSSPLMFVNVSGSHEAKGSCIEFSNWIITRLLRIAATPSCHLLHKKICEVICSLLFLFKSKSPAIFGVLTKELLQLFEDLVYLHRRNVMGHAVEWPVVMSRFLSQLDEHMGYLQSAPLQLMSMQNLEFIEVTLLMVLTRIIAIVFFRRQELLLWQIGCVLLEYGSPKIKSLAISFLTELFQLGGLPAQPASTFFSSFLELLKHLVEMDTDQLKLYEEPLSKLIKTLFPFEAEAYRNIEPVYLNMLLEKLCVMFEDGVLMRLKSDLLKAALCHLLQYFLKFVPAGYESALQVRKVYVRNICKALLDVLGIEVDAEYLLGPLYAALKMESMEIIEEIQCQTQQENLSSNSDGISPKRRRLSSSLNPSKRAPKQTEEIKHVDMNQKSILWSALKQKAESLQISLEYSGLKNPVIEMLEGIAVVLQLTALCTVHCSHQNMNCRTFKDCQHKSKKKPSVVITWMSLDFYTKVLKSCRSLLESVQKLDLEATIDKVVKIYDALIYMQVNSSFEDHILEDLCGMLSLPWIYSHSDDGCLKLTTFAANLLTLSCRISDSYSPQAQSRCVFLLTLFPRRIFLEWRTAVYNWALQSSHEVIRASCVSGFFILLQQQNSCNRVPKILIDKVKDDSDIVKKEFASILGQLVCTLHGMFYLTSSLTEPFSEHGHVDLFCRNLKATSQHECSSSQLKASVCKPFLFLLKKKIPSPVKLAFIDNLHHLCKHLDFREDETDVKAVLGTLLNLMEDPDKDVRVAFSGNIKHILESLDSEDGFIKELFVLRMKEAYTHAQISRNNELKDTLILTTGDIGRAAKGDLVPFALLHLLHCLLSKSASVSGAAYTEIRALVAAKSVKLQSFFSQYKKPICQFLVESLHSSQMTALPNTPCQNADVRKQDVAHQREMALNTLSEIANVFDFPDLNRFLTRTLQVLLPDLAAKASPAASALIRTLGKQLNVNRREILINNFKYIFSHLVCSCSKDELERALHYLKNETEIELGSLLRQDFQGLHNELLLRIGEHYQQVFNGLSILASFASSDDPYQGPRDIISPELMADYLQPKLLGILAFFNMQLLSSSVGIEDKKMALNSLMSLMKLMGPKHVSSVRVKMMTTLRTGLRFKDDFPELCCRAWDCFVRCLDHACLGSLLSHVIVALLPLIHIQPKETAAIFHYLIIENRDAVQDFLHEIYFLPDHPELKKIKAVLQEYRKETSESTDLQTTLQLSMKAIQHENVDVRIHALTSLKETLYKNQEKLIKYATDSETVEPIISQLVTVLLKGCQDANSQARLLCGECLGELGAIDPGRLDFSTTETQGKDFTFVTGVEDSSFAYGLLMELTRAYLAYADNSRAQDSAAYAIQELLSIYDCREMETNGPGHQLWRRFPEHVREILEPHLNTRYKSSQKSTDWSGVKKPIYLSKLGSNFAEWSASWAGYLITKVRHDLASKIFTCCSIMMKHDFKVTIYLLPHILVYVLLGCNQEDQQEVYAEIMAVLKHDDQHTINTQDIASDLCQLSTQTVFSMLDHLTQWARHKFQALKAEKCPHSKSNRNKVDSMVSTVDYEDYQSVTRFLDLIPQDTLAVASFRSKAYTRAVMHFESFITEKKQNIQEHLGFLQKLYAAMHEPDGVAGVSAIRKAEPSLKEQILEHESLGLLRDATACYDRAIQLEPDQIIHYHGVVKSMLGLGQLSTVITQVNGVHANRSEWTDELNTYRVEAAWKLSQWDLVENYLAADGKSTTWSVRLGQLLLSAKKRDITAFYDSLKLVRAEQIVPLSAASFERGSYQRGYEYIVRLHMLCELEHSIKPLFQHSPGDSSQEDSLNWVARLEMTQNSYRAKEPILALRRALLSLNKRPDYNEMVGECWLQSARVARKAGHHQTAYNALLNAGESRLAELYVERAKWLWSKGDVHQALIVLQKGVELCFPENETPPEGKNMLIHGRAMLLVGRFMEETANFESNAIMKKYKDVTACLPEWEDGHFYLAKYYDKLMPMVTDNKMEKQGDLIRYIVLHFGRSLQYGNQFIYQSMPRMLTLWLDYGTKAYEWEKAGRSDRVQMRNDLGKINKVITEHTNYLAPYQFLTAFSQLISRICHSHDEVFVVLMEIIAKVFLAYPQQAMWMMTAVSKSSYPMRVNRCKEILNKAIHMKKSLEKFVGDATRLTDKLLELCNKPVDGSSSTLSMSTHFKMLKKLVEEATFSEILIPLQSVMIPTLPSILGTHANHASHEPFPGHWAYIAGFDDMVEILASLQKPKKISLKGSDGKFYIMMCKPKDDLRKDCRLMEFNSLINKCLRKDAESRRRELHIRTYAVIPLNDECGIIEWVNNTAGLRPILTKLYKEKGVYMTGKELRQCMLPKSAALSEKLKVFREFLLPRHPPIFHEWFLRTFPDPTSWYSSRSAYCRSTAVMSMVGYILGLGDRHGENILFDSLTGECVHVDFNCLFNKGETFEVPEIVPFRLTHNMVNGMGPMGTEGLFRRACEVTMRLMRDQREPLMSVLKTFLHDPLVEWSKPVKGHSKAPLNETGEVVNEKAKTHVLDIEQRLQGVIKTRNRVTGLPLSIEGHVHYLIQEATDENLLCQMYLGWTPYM

| SMILES | Ki [nM] |
| --- | --- |
| CC(C)S(=O)(=O)c1ccc(-c2cnc3[nH]cc(N4Cc5c(C#N)cccc5C4=O)c3n2)cc1 [Compound I-16, 2-(2-(4-(isopropylsulfonyl)phenyl)-5H-pyrrolo[2,3-b]pyrazin-7-yl)-1-oxoisoindoline-4-carbonitrile] | 50 to 100 |
| CC(C)S(=O)(=O)c1ccc(-c2cnc3[nH]cc(N4Cc5c(CN)cccc5C4=O)c3n2)cc1 [Compound I-17, 4-(aminomethyl)-2-(2-(4-(isopropylsulfonyl)phenyl)-5H-pyrrolo[2,3-b]pyrazin-7-yl)isoindolin-1-one] | ≤ 50 |
| CC(C)S(=O)(=O)c1ccc(-c2cnc3[nH]cc(N4Cc5cccc(C#N)c5C4=O)c3n2)cc1 [Compound I-18, 2-(2-(4-(isopropylsulfonyl)phenyl)-5H-pyrrolo[2,3-b]pyrazin-7-yl)-3-oxoisoindoline-4-carbonitrile] | ≤ 50 |
| CC(C)S(=O)(=O)c1ccc(-c2cnc3[nH]cc(N4Cc5cccc(CN)c5C4=O)c3n2)cc1 [Compound I-19, 7-(aminomethyl)-2-(2-(4-(isopropylsulfonyl)phenyl)-5H-pyrrolo[2,3-b]pyrazin-7-yl)isoindolin-1-one] | ≤ 50 |
| CC(C)S(=O)(=O)c1ccc(-c2cnc3[nH]cc(N4Cc5ccc(CN)cc5C4=O)c3n2)cc1 [Compound I-20, 6-(aminomethyl)-2-(2-(4-(isopropylsulfonyl)phenyl)-5H-pyrrolo[2,3-b]pyrazin-7-yl)isoindolin-1-one] | ≤ 50 |
| CC(C)S(=O)(=O)c1ccc(-c2cnc3[nH]cc(N4Cc5cccc(N)c5C4=O)c3n2)cc1 [Compound I-21, 7-amino-2-(2-(4-(isopropylsulfonyl)phenyl)-5H-pyrrolo[2,3-b]pyrazin-7-yl)isoindolin-1-one] | ≤ 50 |

Further lines, results first:

| Ki [nM] | SMILES |
| --- | --- |
| ≤ 50 | O=C1c2c(Cl)cccc2CN1c1c[nH]c2ncc(-c3ccc(S(=O)(=O)C4CCNCC4)cc3)nc12 [Compound I-23, 7-chloro-2-(2-(4-(piperidin-4-ylsulfonyl)phenyl)-5H-pyrrolo[2,3-b]pyrazin-7-yl)isoindolin-1-one] |
| ≤ 50 | O=C1c2c(Cl)cccc2CN1c1c[nH]c2ncc(-c3ccc(S(=O)(=O)C4CCCNC4)cc3)nc12 (stereo not shown) [Compound I-24, 7-chloro-2-(2-(4-(piperidin-3-ylsulfonyl)phenyl)-5H-pyrrolo[2,3-b]pyrazin-7-yl)isoindolin-1-one] |
| ≤ 50 | CC(C)S(=O)(=O)c1ccc(-c2cnc3[nH]cc(N4Cc5ccc(N6CC[C@@H](N)C6)cc5C4=O)c3n2)cc1 [Compound I-25, (R)-6-(3-aminopyrrolidin-1-yl)-2-(2-(4-(isopropylsulfonyl)phenyl)-5H-pyrrolo[2,3-b]pyrazin-7-yl)isoindolin-1-one] |
| ≤ 50 | CC(C)S(=O)(=O)c1ccc(-c2cnc3[nH]cc(N4Cc5ccc(NCCN(C)C)cc5C4=O)c3n2)cc1 [Compound I-26, 6-((2-(dimethylamino)ethyl)amino)-2-(2-(4-(isopropylsulfonyl)phenyl)-5H-pyrrolo[2,3-b]pyrazin-7-yl)isoindolin-1-one] |
| ≤ 50 | CC(C)S(=O)(=O)c1ccc(-c2cnc3[nH]cc(N4Cc5ccc(N6CC[C@H](N)C6)cc5C4=O)c3n2)cc1 [Compound I-27, (S)-6-(3-aminopyrrolidin-1-yl)-2-(2-(4-(isopropylsulfonyl)phenyl)-5H-pyrrolo[2,3-b]pyrazin-7-yl)isoindolin-1-one] |
| ≤ 50 | CC(C)S(=O)(=O)c1ccc(-c2cnc3[nH]cc(N4Cc5cc(N6CCNCC6)ccc5C4=O)c3n2)cc1 [Compound I-28, 2-(2-(4-(isopropylsulfonyl)phenyl)-5H-pyrrolo[2,3-b]pyrazin-7-yl)-5-(piperazin-1-yl)isoindolin-1-one] |
| ≤ 50 | CC(C)S(=O)(=O)c1ccc(-c2cnc3[nH]cc(N4Cc5cc(N6CC[C@H](CN)C6)ccc5C4=O)c3n2)cc1 [Compound I-29, (R)-5-(3-(aminomethyl)pyrrolidin-1-yl)-2-(2-(4-(isopropylsulfonyl)phenyl)-5H-pyrrolo[2,3-b]pyrazin-7-yl)isoindolin-1-one] |
